“And” between values parts separate entries of the source, which are not always exact repeats. Equal values may be shown once. Read-outs that look alike come from different tables or passages of the source.
Assays:
in vivo = conditions: for Kp at 0.5 hr / Kp at 1 hr / Kp at 2 hr / Kp at 4 hr / concentration at 0.5 hr / concentration at 1 hr / concentration at 2 hr / concentration at 4 hr: ip, 10 mg/kg
Protocol: Compounds were administered via the indicated routes and blood samples were removed at various times up to 24 hr. Concentration of compound was determined by LC/MS.

[1] = tested on: LPS-induced production of NO by J774A.1 macrophages; experiment: NO production assay, LPS-activated J774A.1 macrophages; assay type: cell-based; conditions: Mus musculus, J774.A1; 10 ng/ml LPS, 20 hr
Protocol: The J774A.1 mouse macrophage cell line was grown to confluence in DMEM medium containing 10% fetal bovine serum (FBS). Cells were harvested into single-cell suspensions (by incubation on ice and agitation), seeded into 96-well plates at 1×10^5 cells/well (200 μL volume) and incubated (5% CO2, 37° C.) overnight. Compounds were added to the cells at final concentrations ranging from 50 to 1 μM and pre-incubated for 1 hr. Lipopolysaccharide (LPS) was added to the cells at a final concentration of 10 ng/ml. After incubation for 20 hr, culture supernatants were harvested and transferred to a new 96-well plate. Levels of LPS-induced NO in the supernatants were quantified by Greiss reagent (Active Motif) with supernatants from unstimulated cells serving as a negative control.

[2] = tested on: cerebellar granule neurons; experiment: Glutamate-induced neurodegeneration in cerebellar granule neurons (MTT); assay type: cell-based, C57BL/6 mouse; conditions: Mus musculus, Neuron
Source text: The method for isolation of cerebellar granule neurons has been previously described in published studies. Neonate C57BL/6 mouse pups, 7-8 days old, are obtained. Heads are removed and rinsed in 70% alcohol and transfered to an 85 mm dish filled with PBS on ice. Heads are cut, the brains removed, and the cerebella dissected and placed in a 50 mm dish with PBS on ice. The meninges, choroids plexus and blood vessels are removed from the cerebellum and the cleaned organ is transferred to a 35 mm dish with Hank's buffered salt solution (HBSS) containing Ca^2+ and Mg^2+. Each cerebellum is cut into pieces and incubated with trypsin solution at 37° C. for 10 minutes, after which 0.5 mg/ml (final concentration) trypsin inhibitor and 0.1 mg/ml (final concentration) DNAse are added. After centrifugation, cerebellar fragments are resuspended in dissociation medium (HBSS with Ca^2+, Mg^2+, trypsin inhibitor, DNAse) and a single cell suspension generated by agitation with a Pasteur pipette. After the coarse debris settles, the supernatant (cell suspension) is passed through a cell strainer (40 μm, Becton Dickinson #1942501) into a 50 ml sterile tube and the cells centrifuged. Cells are washed and re-suspended in culture medium (BME Basal Medium containing 10% fetal bovine serum, 100 IU/ml penicillin/streptomycin, 10 mM HEPES, 25 mM KCl, 2 mM L-glutamine).
The cell suspension is transferred to poly-D-lysine-coated dishes and incubated for 25 min at 37° C. in 5% CO2. After incubation, the non-adherent cells are removed and counted with a hemocytometer. A suspension of 0.9×10^6 cells/ml is prepared in culture medium, and 100 μL volumes are added per well (250,000 cells/cm^2) in poly-D-Lysine coated 96-well plates. One day after plating, cytosine arabinoside (AraC) is added to a final concentration of 10 μM. After 6-8 days of in vitro culture, the neurons are ready to be used in the assay.
To test the activity of Compound 1 and minocycline, compounds were added to the neuron cultures at varying concentrations. Buffer was added to some cells as a negative control. After pre-incubation with compound for 30 minutes at 5% CO2, 37° C., glutamate was added at a final concentration of […] and the cells further incubated for 1 hour. Glutamate was not added to some cells as a positive control for cell survival. After the 1 hr period, cells were washed once with culture medium and 100 μL of fresh medium were added per well. Compounds were re-added to the cells and the cultures were incubated overnight at 5% CO2, 37° C. […] Spectrophotometric absorbance at wavelength 570 nm was measured using a microplate reader.
The MTT absorbance for non-stimulated cells was considered the 100% survival level.

[3] = molecular target: T1, recombinant human matrix metalloproteinase-9 (MMP-9) (Homo sapiens, UniProt P14780); experiment: MMP-9 enzyme activity assay (cell-free); assay type: biochemical
T1 construct: an aliquot of active recombinant human matrix metalloproteinase-9 (MMP-9)(CalBioChem) was added; purchased CalBioChem
T1 sequence (P14780 107-707 limits assumed): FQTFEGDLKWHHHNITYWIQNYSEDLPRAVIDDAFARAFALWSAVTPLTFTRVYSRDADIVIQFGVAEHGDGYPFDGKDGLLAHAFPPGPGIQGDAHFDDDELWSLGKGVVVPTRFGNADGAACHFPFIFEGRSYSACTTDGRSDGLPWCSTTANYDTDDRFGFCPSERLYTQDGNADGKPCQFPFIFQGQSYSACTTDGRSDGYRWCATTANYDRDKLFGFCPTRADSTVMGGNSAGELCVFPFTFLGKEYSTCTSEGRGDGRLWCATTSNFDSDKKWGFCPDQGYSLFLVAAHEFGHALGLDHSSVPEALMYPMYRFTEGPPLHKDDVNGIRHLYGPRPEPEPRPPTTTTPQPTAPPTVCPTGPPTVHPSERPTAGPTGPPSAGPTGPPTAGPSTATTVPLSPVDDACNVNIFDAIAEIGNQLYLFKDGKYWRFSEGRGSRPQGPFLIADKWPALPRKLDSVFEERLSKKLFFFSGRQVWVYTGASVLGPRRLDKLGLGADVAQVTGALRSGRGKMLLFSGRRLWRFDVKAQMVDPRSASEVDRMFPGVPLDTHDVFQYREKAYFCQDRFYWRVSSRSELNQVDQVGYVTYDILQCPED
Protocol: Compound 1 was tested to determine specific anti-inflammatory characteristics. In vitro assays to assess the inhibition of substrate cleavage by matrix metalloproteinase 9 (MMP-9) and the inhibition of TNFα production by lipopolysaccharide (LPS)-activated macrophages were performed. MMP-9 activity was determined by fluorescence after incubation of recombinant MMP-9 with fluorescein-conjugated DQ gelatin for 90 min. TNFα production was determined by incubation of 10 ng/ml LPS with RAW264.7 macrophage cells for 24 h, followed by quantitation of TNFα in culture supernatant by ELISA.
This assay was designed to measure the degradation of substrate by purified enzyme. To a solution containing 2.5 μg/ml fluorescein-conjugated DQ gelatin (Invitrogen) in buffer (50 mM Tris-HCl, 150 mM NaCl, 5 mM CaCl2, 0.2 mM sodium azide, pH 7.6), tetracycline compounds were added at final concentrations ranging from 100 to 1 μM. Subsequently, an aliquot of active recombinant human matrix metalloproteinase-9 (MMP-9)(CalBioChem) was added to a final concentration of 0.05 μg/ml. The total volume of the reaction mixture was 200 μL and samples were contained in 96-well black plates (Corning). The mixture was incubated at room temperature in the dark for 85 min, after which the fluorescence was measured using a microplate reader. Samples containing no MMP-9 enzyme were used as negative controls and samples with enzyme and without compound were positive controls.

[4] = Table 4, unit inferred, read-out: Neuroprotection (mouse CGN)
[5] = concentration at which 50% of the maximum response is observed, read-out: EC50, survival of glutamate-stimulated cerebellar granule neurons
[6] = Table 4, unit inferred, read-out: MMP-9 activity (cell-free)
[7] = Table 11, read-out: MMP-9 Activity (cell-free) IC50

SMILES | AUC (in vivo; monkey, iv, 5 mg/kg) [µM·h] | Cmax (in vivo; monkey, iv, 5 mg/kg) [µM] | half-life (in vivo; monkey, iv, 5 mg/kg) [h] | AUC (in vivo; monkey, po, 5 mg/kg) [µM·h] | Cmax (in vivo; monkey, po, 5 mg/kg) [µM] | Tmax (in vivo; monkey, po, 5 mg/kg) [h] | bioavailability (in vivo; monkey, po, 5 mg/kg) [%] | AUC (in vivo; rat, po, 5 mg/kg) [µM·h] | Cmax (in vivo; rat, po, 5 mg/kg) [µM] | Tmax (in vivo; rat, po, 5 mg/kg) [h] | bioavailability (in vivo; rat, po, 5 mg/kg) [%] | IC50 [1] [µM] | EC50 [2, 4] [µM] | EC50 [2, 5] [µM] | IC50 [3, 6] [µM] | IC50 [3, 7] [µM] | also measured
CCc1cc(N(C)C)c2c(c1O)C(=O)C1=C(O)[C@]3(O)C(=O)C(C(N)=O)=C(O)[C@@H](N(C)C)[C@@H]3C[C@@H]1C2 [Compound 1] | 70 | 28.5 | 5.7 | 46.7 | 8.6 | 3 | 66.9 | 14.3 | 1.25 | 2 | 26 | 30 | 2.6 ± 0.9 | 2.6 | 29 | 32.7 | Kp at 0.5 hr (in vivo; mouse, in vivo): 0.179; Kp at 1 hr (in vivo; mouse, in vivo): 0.284; Kp at 2 hr (in vivo; mouse, in vivo): 0.568; Kp at 4 hr (in vivo; mouse, in vivo): 1.17; concentration at 0.5 hr (in vivo; mouse, in vivo): 6860 ng/mL and 1230 ng/g; concentration at 1 hr (in vivo; mouse, in vivo): 6360 ng/mL and 1810 ng/g; concentration at 2 hr (in vivo; mouse, in vivo): 7020 ng/mL and 3990 ng/g; concentration at 4 hr (in vivo; mouse, in vivo): 3680 ng/mL and 4310 ng/g; half-life (in vivo; rat): 3.5 h; AUC (in vivo; rat, iv, 5 mg/kg): 54.4 µM·h; Cmax (in vivo; rat, iv, 5 mg/kg): 27.9 µM
CN(C)c1ccc(O)c2c1C[C@H]1C[C@H]3[C@H](N(C)C)C(O)=C(C(N)=O)C(=O)[C@@]3(O)C(O)=C1C2=O [Minocycline, minocycline, reference compound] | 55.8 | 29.9 | 10.4 | 44.6 | 4.4 | 3 | 80.1 | 3.6 | 0.4 | 1.7 | 30.7 | 46 ± 2.1 | 1.4 ± 0.1 | 1.4 | 43.2 | 43.2 | concentration at 0.5 hr (in vivo; brain): 138 ng/g; concentration at 1 hr (in vivo; brain): 380 ng/g; concentration at 2 hr (in vivo; brain): 317 ng/g; concentration at 4 hr (in vivo; brain): 327 ng/g; Kp at 0.5 hr (in vivo; brain/plasma): 0.095; Kp at 1 hr (in vivo; brain/plasma): 0.253; Kp at 2 hr (in vivo; brain/plasma): 0.508; Kp at 4 hr (in vivo; brain/plasma): 0.688; concentration at 0.5 hr (in vivo; plasma): 1.45 µg/mL; concentration at 1 hr (in vivo; plasma): 1.5 µg/mL; concentration at 2 hr (in vivo; plasma): 0.623 µg/mL; concentration at 4 hr (in vivo; plasma): 0.475 µg/mL; AUC (in vivo; rat, iv, 1 mg/kg): 2.4 µM·h; Cmax (in vivo; rat, iv, 1 mg/kg): 0.93 µM; half-life (in vivo; rat, iv, 1 mg/kg): 3.6 h
